Measurements as given in PMC5341405, “Lapachol, a compound targeting pyrimidine metabolism, ameliorates experimental autoimmune arthritis” (Arthritis Research & Therapy, 2017).

Key:
human CD4 T cells [1] = assay: Proliferation assay of human CD4 T cells (dye dilution, flow cytometry); format: cell-based
Excerpt: (§1) Human CD4 T cells were purified from the whole blood of healthy volunteers. Briefly, peripheral blood mononuclear cells (PBMCs) were isolated by Percoll gradient (Sigma-Aldrich, St. Louis, MO, USA). CD4 T cells were isolated from PBMCs using Isolation Kit (Miltenyi Biotec, Bergisch Gladbach, Germany). For murine CD4 T cells, lymph nodes from naive C57BL/6 male mice were harvested, and CD4 T cells were purified using Isolation Kit (Miltenyi Biotec, Bergisch Gladbach, Germany) according to the manufacturer’s recommendations.
(§2) A total of 1 × 10^5 CD4 T cells were labeled with 1 μM Dye Efluor® 670 (eBioscience, San Diego, CA, USA) for 15 min at 37 °C and cultured in RPMI-1640 10% FBS for 4 days in a 96-well U-bottom plate (Falcon, Franklin Lakes, New Jersey, USA) with the LAP salt diluted in RPMI-1640 (10, 30, and 100 μM), LEF diluted in RPMI-1640 (10, 30, and 100 μM; Arava®, Sanofi, France) and/or uridine (30, 100, and 300 μM; Sigma-Aldrich, St. Louis, MO, USA) in the presence of anti-CD3 (3 μg/ml) and anti-CD28 (1.5 μg/ml). The proliferation of CD4 T cells was determined by dye dilution in flow cytometry analysis. The results were expressed as the percentage of suppression using the following formula: [proliferation of CD4 T cells only – (proliferation of T CD4 cells with LEF or LAP)/proliferation of CD4 T cells only] × 100.

human CD4 T cells [2] = assay: Annexin-V/propidium iodide staining for apoptotic cell death; format: cell-based; details: human CD4 T cells, 10, 30, and 100 μM
Experimental: We next assessed the antiproliferative effect of LAP. To this end, freshly isolated mouse CD4 T cells were labelled with Dye Efluor 670 and stimulated with anti-CD3/CD28 in the presence of LAP or LEF (10, 30, and 100 μM) for 4 days. […] We also investigated the effect of LAP in human CD4 T cells isolated from the peripheral blood of healthy donors. […] Additionally, we performed annexin-V/propidium iodide (PI) staining of human CD4 T cells treated with LAP or LEF to assess apoptotic cell death. […] Thus, the reduction of T-cell proliferation by LAP below 100 μM was primarily due to inhibition of the proliferative response rather than a reduction of cellular viability by toxicity.

[3] = system: antigen-induced arthritis (AIA) in C57BL/6 mice; assay: Antigen-induced arthritis (AIA); format: in vivo
DHODH = system: DHODH; design: method as in PMID 10658902; details: cited from earlier work
[4] = Tolerability and serum liver enzymes during CIA protocol; format: in vivo, DBA1/J mice
Experimental: (§3) Male DBA/1 J mice were injected i.d. at the base of the tail with 200 μg bovine type II collagen (CII; a gift from Dr. David D. Brand, University of Tennessee Health Science Center) emulsified in Freund’s complete adjuvant (CFA) on day 0. Mice were boosted i.d. with CII (200 μg emulsified in Freund’s incomplete adjuvant (IFA)) on day 21. Mice were monitored daily for signs of arthritis. Scores were assigned based on erythema, swelling, or ankylosis present in each paw on a scale of 0 to 3, giving a maximum score of 12 per mouse. After arthritis induction, mice were treated orally with LAP (3 mg/kg and 10 mg/kg) or LEF (3 mg/kg) or saline daily. The clinical score was addressed every day after collagen boost. All mice were euthanized for histologic assessment of the hind limbs 4 weeks after the boost.
Serum concentrations of aspartate aminotransferase (AST) or alanine aminotransferase (ALT) were measured using commercial kits according to the manufacturer’s instructions (ID Labs Biotechnology Inc., London, Canada).

murine CD4 T cells = assay: Proliferation assay of murine CD4 T cells (dye dilution, flow cytometry); format: cell-based, C57BL/6 mice
Excerpt: as §1, §2

[5] = system: collagen-induced arthritis (CIA) in DBA1/J mice; assay: Collagen-induced arthritis (CIA); format: in vivo
Experimental: as §3
Femur-tibial joints were collected 4 weeks after CII boost, fixed in 4% (vol/vol) buffered formalin and decalcified in 10% EDTA for 2–3 weeks. The tissues were then trimmed, dehydrated in ethanol, and embedded in paraffin for the preparation of the slides. Histological assessment was carried out following routine staining. Joint sections were stained with hematoxylin and eosin (H&E) to analyze synovitis (inflammatory cell influx and synovial hyperplasia) or Safranin-O to visualize proteoglycan depletion and cartilage destruction. The severity of the joint damage was scored according to the criteria described by Wang et al.: 0 = no destruction; 1 = minimal erosion; 2 = slight to moderate erosion in a limited area; 3 = more extensive erosion; 4 = general destruction.
Interleukin (IL)-17 and interferon (IFN)-γ cytokines were measured by enzyme-linked immunosorbent assay (ELISA) from hind paw homogenate of an individual mouse using antibodies according to the manufacturer’s instructions (R&D Systems, Minneapolis, MN, USA). The results were expressed as pg of cytokine/mg of tissue.
Myeloperoxidase (MPO) activity in tissue homogenates was used as an index of neutrophil infiltration into paws from CIA mice as previously described.

human keratinocytes = system: human keratinocytes; design: method as in PMID 10479319; details: in vitro; cited from earlier work
[6] = 10, 30, and 100 μM, 4 days, anti-CD3/CD28
[7] = 10 mg/kg orally, recall with mBSA 100 μg/ml for 96 h

For `CC(C)=CCC1=C(O)C(=O)c2ccccc2C1=O` [LAP, 2-hydroxy-3-(3methyl-2-butenyl)-1,4-naphthoquinone], the “effect on proliferation of human CD4 T cells” value (human CD4 T cells [1]; [6]) was “dose-dependent inhibition of human T-cell proliferation”, the “suppression of proliferation compared with LEF” value (human CD4 T cells [1]; human CD4 T cells, same equivalent concentrations) was “greater ability to suppress the proliferation” and the “antiproliferative effect in the presence of uridine” value (human CD4 T cells [1]; human CD4 T cells, uridine 30, 100, and 300 μM) was “uridine was able to reverse the antiproliferative effect of LAP in a dose-dependent manner”. The “toxicity (apoptotic cell death, annexin-V/PI)” value (human CD4 T cells [2]) was “only the highest concentration of LAP (100 μM) was toxic”, the “leucocyte infiltration into the knee joint” value ([3]; 10 mg/kg orally once a day over 9 days, 6 h after mBSA challenge) was “remarkable reduction in leucocyte infiltration” and the “serum levels of anti-mBSA total IgG” value ([3]; 10 mg/kg orally once a day over 9 days, day 21) was “did not find differences”. The “mBSA-specific production of IFN-γ by draining lymph node cells and splenocytes” value [3, 7] was “significantly reduced”, the “mBSA-specific production of IL-17 by draining lymph node cells and splenocytes” value [3, 7] was “significantly reduced” and the “inhibition of DHODH activity” value (DHODH) was “can inhibit DHODH activity”. The “serum levels of ALT or AST” value ([4]; 3 mg/kg and 10 mg/kg orally daily, CIA protocol, 4 wk after boost) was “did not alter the serum levels of ALT or AST”, the “tolerability (general symptoms of toxicity: piloerection, diarrhea, weight loss, prostration)” value ([4]; 3 mg/kg and 10 mg/kg orally once a day for 4 weeks, CIA mice) was “well tolerated without apparent side effects” and the “effect on proliferation of murine CD4 T cells” value (murine CD4 T cells; [6]) was “inhibited the proliferation of murine CD4 T cells in a dose-dependent manner”. For the same molecule, the “suppression of proliferation compared with LEF” value (murine CD4 T cells; murine CD4 T cells, same equivalent concentrations) was “greater ability to suppress the proliferation”, the “severity of arthritis (clinical score and number of affected paws)” value ([5]; 3 mg/kg and 10 mg/kg orally daily, both doses) was “markedly attenuated the severity of arthritis” and the “IL-17A levels in hind paws” value ([5]; dose of 10 mg/kg orally daily, 4 weeks after boost, ELISA) was “significant reduction in IL-17A levels”. The “MPO activity in hind paws (neutrophil infiltration)” value ([5]; orally daily, 4 weeks after boost, vs vehicle-treated CIA mice) was “reduced MPO activity”, the “histopathological features of arthritis severity (H&E, Safranin-O, knee joint)” value ([5]; orally daily, 4 weeks after boost, vs vehicle-treated group) was “markedly reduced all histopathological features of arthritis severity” and the “proliferation of human keratinocytes” value (human keratinocytes) was “can reduce proliferation of the human keratinocytes”.
